Calls of active or inactive are those of the source.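 Rule for the calls: active = compounds giving half or more protection of infected cells from virus-caused growth loss, again on retest; inactive = the rest.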
System: CEM cells HIV-1 protection, formazan growth assay
Experiment: NCI AIDS Antiviral Assay
Settings: for IC50: measured here: growth of uninfected CEM cells
Outline: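 Soluble formazan readout of cell growth; CEM cells ± HIV-1; 5 drug concs. ≥50% protection → retest; ≥50% again = moderately active; reproducible 100% = confirmed active.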

SMILES | EC50 [µM] | IC50 [µM] | outcome
CCCCCCCCCCCCCCC(F)C(=O)OCC1OC(CO)(OC2OC(CO)C(O)C(O)C2O)C(O)C1O (configuration not stated) | > 200 | 95.5 | –
COC(=O)C1c2c(C)cc3n2C(C=C(C)C3)C1C(=O)OC (configuration not stated) | 75.9 | 107 | –
CC(=O)CC(=O)ON(C)C(=O)Cc1ccccc1 | > 1000 | > 1000 | –
COC(=O)CC(c1ccc(OC)cc1)C(CC(=O)OC)c1ccc(OC)cc1 (configuration not stated) | > 67.6 | 60.3 | –
N#CC(C#N)=CN1CCNC1=S | > 200 | > 200 | –
COC1/C=C/OC2(C)Oc3c(C)c(O)c4c(O)c(cc(OCC(=O)N(C)C5CCCCC5)c4c3C2=O)NC(=O)/C(C)=C/C=C/C(C)C(O)C(C)C(O)C(C)C(OC(C)=O)C1C (configuration not stated) | > 200 | 12.3 | –
COc1cc(C)cc2c1OC(c1ccccc1)CC2=O (configuration not stated) | > 200 | 52.5 | –
COC(=O)C1(C)CCc2c(OC)ccc(OC)c2C1=O (configuration not stated) | 120 | 324 | –
CC(C)(C)OC(=O)N(CCCN)CCCCN(CCCN)C(=O)OC(C)(C)C | – | – | inactive
C/C(=N\Nc1ccc2ccccc2n1)c1ccccn1 | > 0.2 | 0.11 | –
S=C(SSSC(=S)N(C1CCCCC1)C1CCCCC1)N(C1CCCCC1)C1CCCCC1 | – | – | inactive
Cc1ccc(C2(O)c3cccc4cccc(c34)C2(O)c2ccc(C)cc2)cc1 (configuration not stated) | > 200 | 13.5 | –
O=[N+]([O-])c1ccc(N/N=C2/CC3=C2CCCCCCCCCC3)c([N+](=O)[O-])c1 | > 100 | > 100 | –
NC1CCCCCCC1 | > 200 | > 200 | –
CC/C=C(\C(=C/CC)[N+](=O)[O-])[N+](=O)[O-] | > 200 | 3.31 | –
COC(=O)C1=C(C(=O)OC)SC(=C(N=Nc2ccccc2)c2ccccc2)S1 | – | – | inactive
[N-]=[N+]=CC(=O)OC1CCOCC1 | > 200 | > 200 | –
CC(C)=CCCC1(C)C=Cc2c(c(C)cc3c2[nH]c2ccccc23)O1 (configuration not stated) | > 21.9 | 12 | –
NNC(=O)CC(=O)Nc1ccc(S(=O)(=O)c2ccc(NC(=O)CC(=O)NN)cc2)cc1 | > 200 | > 200 | –
CCN(CC)CCOc1ccc(/C(C#N)=C/c2ccc(SC(C)C)cc2)cc1 | > 100 | 1.41 | –
COc1cc2c(c([N+](=O)[O-])c1)NCCS2 | > 200 | > 200 | –

SMILES | EC50 [µM] | IC50 [µM] | outcome
CC(=O)Nc1ccc(C(=O)N2N=C(C)/C(=C/c3ccccc3O)C2=O)cc1 | > 51.3 | > 51.3 | –
Cc1nc(Nc2ccc([N+](=O)[O-])cc2)sc1C(=O)/C=C/c1ccc(N(C)C)cc1 | > 33.1 | 18.6 | –
O=C(NCCN1CCOCC1)c1cn2c(ccc3sc4ccccc4c(=O)c32)n1 | > 200 | 3.55 | –
Nc1ccn(C2CC(O)C(COP(O)(=S)OC3CC(n4ccc(N)nc4=O)OC3CO)O2)c(=O)n1 (configuration not stated) | > 200 | > 200 | –
C=CCOC(C)n1c(C)c(Br)c(=O)[nH]c1=O (configuration not stated) | – | > 200 | inactive
CCc1cc(C(=O)OC)cn1C(=N)c1ccc(Cl)cc1 | > 851 | > 851 | –
Cc1cc2c(cc1C)[n+](=O)c(C(=O)CC(=O)C(=O)Nc1c(C(C)C)cccc1C(C)C)c(C)n2[O-] | > 7.94 | > 7.94 | –
c1cc(-c2ccsc2-c2ccsc2)cs1 | > 200 | 52.5 | –
CCC1CC2CN3CCc4c([nH]c5ccc(OC)cc45)C(C(=O)OC)(C2)C13 (configuration not stated) | – | – | inactive
Cc1cc2c(C(C)C)c(O)c(O)c(C=Nc3ccc(N=Nc4ccccc4)cc3)c2c(O)c1-c1c(C)cc2c(C(C)C)c(O)c(O)c(C=Nc3ccc(N=Nc4ccccc4)cc3)c2c1O | – | – | inactive
CN(NC(=O)/C(=C\c1ccccc1Cl)NC(=O)c1ccccc1)c1cn[nH]c(=O)c1Cl | > 100 | 52.5 | –
Brc1ccc(C[N+]23CN4CN(CN(C4)C2)C3)cc1 | – | – | inactive
O=C(N/N=C/C=C/c1ccccc1)c1ccccc1Nc1ccccc1C(=O)N/N=C/C=C/c1ccccc1 | > 34.7 | 4.9 | –
CCOC(=O)c1ccc(NC(=O)Nc2ncccc2C)cc1 | > 200 | > 200 | –
O=c1[nH]c(=O)n(C2CC(O)C(CO)O2)c2nc3ccc4cc5ccccc5cc4c3nc12 (configuration not stated) | > 50.1 | 39.8 | –
COc1cc2ccc3c4cc(OC)c(OC(C)C)cc4c[n+](C)c3c2cc1OC | > 178 | 174 | –
Nc1nc(N)c(CCCCc2ccc([N+](=O)[O-])cc2)c(N)n1 | – | – | inactive
CCc1cccc(C)c1N1C(=O)C(=O)C(c2nc3ccccc3o2)C(=O)C1=O | > 331 | 66.1 | –
O=C(O)C(=O)O.[NH-]C1CCCC1[NH-].[Pt+2] (configuration not stated) | > 200 | 9.55 | –
COc1ccc(C2NC3=C(CCCC3)C3(C#N)C(=O)N=C(N)C23C#N)cc1 (configuration not stated) | > 200 | 107 | –
N#C/C(=C\c1cc(Cl)cc(Cl)c1O)c1ccc([N+](=O)[O-])cc1 | > 100 | 14.1 | –

SMILES | EC50 [µM] | IC50 [µM] | outcome
CC1C2Cc3ccc(O)cc3C1(C)CCN2C (configuration not stated) | > 129 | > 129 | –
C=CCC1(C)CCCN(Cc2ccccc2)C1=O (configuration not stated) | > 200 | 105 | –
CC1CCC2(CC1)N=C1CCC(C)CC1C1(CCC(C)CC1)N2 (configuration not stated) | > 200 | 97.7 | –
O=C(O)c1ccccc1P(=O)(O)c1ccccc1 | > 200 | > 200 | –
C[C@@H]1OCC(O)C([C@H]2OC(c3ccccc3)=N[C@H]2CO)O1 (some centres not stated) | > 200 | > 200 | –
C=CCC1C(=O)C(C(=O)OC)N2CCc3c([nH]c4ccccc34)C12 (configuration not stated) | > 282 | 138 | –
C(=C\c1ccccc1)/Cn1nc(-c2ccccc2)nc1-c1cnccn1 | 145 | > 200 | –
Cc1ccc(/C=C2\CCCC(CN3CCCCC3)C2=O)cc1 (configuration not stated) | > 200 | 0.724 | –
O=C1CC2(C(=O)N1CN1CCOCC1)c1ccccc1-c1ccccc12 | > 102 | 13.8 | –
CN(Cc1ccccc1)c1cc(=O)n(C)c(=O)[nH]1 | > 200 | > 200 | –
Nc1nc(Cl)nc(Cl)n1 | > 200 | > 200 | –
CC(C)(C)OC(=O)CCCCCNC(=O)CCCCCNC(=O)CCC(CN(CC(=O)OCc1ccccc1)CC(=O)OCc1ccccc1)N(CC(=O)OCc1ccccc1)CC(=O)OCc1ccccc1 (configuration not stated) | – | – | inactive
COc1ccc(N2C(=O)c3c(c4[nH]c5ccc(OC)cc5c4c4ccc(C(C)(C)C)cc34)C2=O)cc1 | > 11 | > 11 | –
CON(C)C(=O)CNC(=O)OCC1c2ccccc2-c2ccccc21 | > 200 | > 100 | –
N[C@@H]1c2c(I)sc(I)c2C(=O)[C@@H]1O | > 200 | 5.25 | –
CC(C)N1CC2CC(CN(C(=O)c3ccccc3)C2)C1 | > 676 | > 676 | –
Cn1cc2ccccc2c1-c1nc(F)nc(Oc2ccc3c(c2)CC[C@@H]2C3CC[C@@]3(C)C2CC[C@@H]3O)n1 (some centres not stated) | > 5.5 | > 5.5 | –
CC1(C)SC(CCCCCCCCCCCNC2=NCCCCCCCCCCC2)=N[C@@H]1C(=O)O | > 67.6 | 38 | –
COc1ccc(C23CCC(=O)N2CCS3)cc1 (configuration not stated) | – | – | inactive
COc1ccc2ccccc2c1CN1CCOCCOCCN(Cc2c(OC)ccc3ccccc23)CCOCCOCC1 | > 8.71 | 4.9 | –
CCCNC(=O)Sc1ccccc1C(=O)N[C@@H](C)C(N)=O | > 4.17 | 1.41 | –
